Assay results reported in patent US12660819B2, “Herbicidal derivatives” (SYNGENTA CROP PROTECTION AG, priority 2020, dated 2026).

Assays:
Type in all cases: in vivo
[1] = test system: Abutilon theophrasti (ABUTH); assay: Post-emergence Test (glasshouse, percentage damage to the plant); conditions: post-emergence spray, 1000 g/ha unless otherwise stated, evaluated after 13 days
Method in brief: (§1)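 Compound formulated in 50:50 acetone/water with 0.5% Tween 20 was diluted to an aqueous spray and applied at 1000 g/ha, unless otherwise stated, onto sown pots. Evaluation after 13 days gave percentage damage, banded into a 1–5 score.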

[2] = test system: Amaranthus retoflexus (AMARE); assay: as above; conditions: post-emergence spray, 1000 g/ha unless otherwise stated, evaluated after 13 days
Method in brief: as §1

[3] = test system: Echinochloa crus-galli (ECHCG); assay: as above; conditions: post-emergence spray, 1000 g/ha unless otherwise stated, evaluated after 13 days
Method in brief: as §1

[4] = test system: Ipomoea hederacea (IPOHE); assay: as above; conditions: post-emergence spray, 1000 g/ha unless otherwise stated, evaluated after 13 days
Method in brief: (§2)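 Seeds sown in standard soil in a glasshouse (24/16 °C day/night, 14 h light, 65% humidity), then sprayed with an aqueous solution of the compound formulated in acetone/water 50:50 with 0.5% Tween 20 at 1000 g/ha unless otherwise stated. Percentage damage was scored after 13 days on a five-point scale (5=81-100%; 1=0-20%).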

Setaria faberi (SETFA) [5] = assay: as above; conditions: post-emergence spray, 1000 g/ha unless otherwise stated, evaluated after 13 days
Method in brief: as §2

Zea mays (ZEAMX) [6] = assay: as above; conditions: post-emergence spray, 1000 g/ha unless otherwise stated, evaluated after 13 days
Method in brief: as §2

[7] = test system: Amaranthus retoflexus (AMARE); assay: Pre-emergence Test (glasshouse, percentage damage to the plant); conditions: 1000 g/ha unless otherwise stated, five-point scale
Setaria faberi (SETFA) [8] = assay: as above; conditions: 1000 g/ha unless otherwise stated, five-point scale
[9] = test system: Echinochloa crus-galli (ECHCG); assay: as above; conditions: 1000 g/ha unless otherwise stated, five-point scale
[10] = test system: Ipomoea hederacea (IPOHE); assay: as above; conditions: 1000 g/ha unless otherwise stated, five-point scale
[11] = test system: Abutilon theophrasti (ABUTH); assay: as above; conditions: 1000 g/ha unless otherwise stated, five-point scale
Zea mays (ZEAMX) [12] = assay: as above; conditions: 1000 g/ha unless otherwise stated, five-point scale

Structure (SMILES) | Post-emergence Test ABUTH, percentage damage to the plant (five-point scale) [1] | Post-emergence Test AMARE, percentage damage to the plant (five-point scale) [2] | Post-emergence Test ECHCG, percentage damage to the plant (five-point scale) [3] | Post-emergence Test IPOHE, percentage damage to the plant (five-point scale) [4] | Post-emergence Test SETFA, percentage damage to the plant (five-point scale) (Setaria faberi (SETFA) [5]) | Post-emergence Test ZEAMX, percentage damage to the plant (five-point scale) (Zea mays (ZEAMX) [6]) | percentage damage to the plant, AMARE [7] | percentage damage to the plant, SETFA (Setaria faberi (SETFA) [8]) | percentage damage to the plant, ECHCG [9] | percentage damage to the plant, IPOHE [10] | percentage damage to the plant, ABUTH [11] | percentage damage to the plant, ZEAMX (Zea mays (ZEAMX) [12])
CCOc1cc(-c2c(C)n(CC)c(-c3ccc(Cl)c(Cl)c3)c(C(=O)O)c2=O)ccc1C(F)(F)F [Compound 65, 2-(3,4-dichlorophenyl)-5-[3-ethoxy-4-(trifluoromethyl)phenyl]-1-ethyl-6-methyl-4-oxo-pyridine-3-carboxylic acid] | 1 (1=0-20%) | 1 (1=0-20%) | 1 (1=0-20%) | 1 (1=0-20%) | 1 (1=0-20%) | 1 (1=0-20%) | 1 (1=0-20%) | 1 (1=0-20%) | 1 (1=0-20%) | 1 (1=0-20%) | 1 (1=0-20%) | 1 (1=0-20%)
CCn1c(C)c(-c2ccc(S(=O)(=O)CC)cc2)c(=O)c(C(=O)O)c1-c1ccc(Cl)c(Cl)c1 [Compound 66, 2-(3,4-dichlorophenyl)-1-ethyl-5-(4-ethylsulfonylphenyl)-6-methyl-4-oxo-pyridine-3-carboxylic acid] | 3 (3=41-60%) | 1 (1=0-20%) | 2 (2=21-40%) | 2 (2=21-40%) | 3 (3=41-60%) | 1 (1=0-20%) | 1 (1=0-20%) | 4 (4=61-80%) | 2 (2=21-40%) | 1 (1=0-20%) | 1 (1=0-20%) | 1 (1=0-20%)
CCn1c(C)c(-c2cc(C)cc(C(F)(F)F)c2)c(=O)c(C(=O)O)c1-c1ccc(Cl)c(Cl)c1 [Compound 67, 2-(3,4-dichlorophenyl)-1-ethyl-6-methyl-5-[3-methyl-5-(trifluoromethyl)phenyl]-4-oxo-pyridine-3-carboxylic acid] | 2 (2=21-40%) | 1 (1=0-20%) | 1 (1=0-20%) | 1 (1=0-20%) | 1 (1=0-20%) | 1 (1=0-20%) | 1 (1=0-20%) | 1 (1=0-20%) | 1 (1=0-20%) | 1 (1=0-20%) | 1 (1=0-20%) | 1 (1=0-20%)
CCn1c(C)c(C2=CCCC2)c(=O)c(C(=O)O)c1-c1ccc(Cl)c(Cl)c1 [Compound 68, 5-(cyclopenten-1-yl)-2-(3,4-dichlorophenyl)-1-ethyl-6-methyl-4-oxo-pyridine-3-carboxylic acid] | 3 (3=41-60%) | 1 (1=0-20%) | 2 (2=21-40%) | 3 (3=41-60%) | 3 (3=41-60%) | 1 (1=0-20%) | 1 (1=0-20%) | 5 (5=81-100%) | 1 (1=0-20%) | 2 (2=21-40%) | 1 (1=0-20%) | 1 (1=0-20%)
CCn1c(C)c(-c2cc(Cl)nc(OC(C)C)c2)c(=O)c(C(=O)O)c1-c1ccc(Cl)c(Cl)c1 [Compound 69, 5-(2-chloro-6-isopropoxy-4-pyridyl)-2-(3,4-dichlorophenyl)-1-ethyl-6-methyl-4-oxo-pyridine-3-carboxylic acid] | 2 (2=21-40%) | 2 (2=21-40%) | 1 (1=0-20%) | 3 (3=41-60%) | 3 (3=41-60%) | 1 (1=0-20%) | 1 (1=0-20%) | 4 (4=61-80%) | 1 (1=0-20%) | 4 (4=61-80%) | 2 (2=21-40%) | 2 (2=21-40%)
CCn1c(C)c(-c2cc(OC)cc(OC)c2)c(=O)c(C(=O)O)c1-c1ccc(Cl)c(Cl)c1 [Compound 70, 2-(3,4-dichlorophenyl)-5-(3,5-dimethoxyphenyl)-1-ethyl-6-methyl-4-oxo-pyridine-3-carboxylic acid] | 2 (2=21-40%) | 1 (1=0-20%) | 2 (2=21-40%) | 1 (1=0-20%) | 3 (3=41-60%) | 2 (2=21-40%) | 1 (1=0-20%) | 3 (3=41-60%) | 1 (1=0-20%) | 1 (1=0-20%) | 1 (1=0-20%) | 1 (1=0-20%)
CCn1c(C)c(-c2cc(C)c(OC)c(C)c2)c(=O)c(C(=O)O)c1-c1ccc(Cl)c(Cl)c1 [Compound 71, 2-(3,4-dichlorophenyl)-1-ethyl-5-(4-methoxy-3,5-dimethyl-phenyl)-6-methyl-4-oxo-pyridine-3-carboxylic acid] | 2 (2=21-40%) | 1 (1=0-20%) | 1 (1=0-20%) | 1 (1=0-20%) | 1 (1=0-20%) | 1 (1=0-20%) | 2 (2=21-40%) | 2 (2=21-40%) | 1 (1=0-20%) | 1 (1=0-20%) | 1 (1=0-20%) | 1 (1=0-20%)
CCNC(=O)c1cc(-c2c(C)n(CC)c(-c3ccc(Cl)c(Cl)c3)c(C(=O)O)c2=O)ccc1Cl [Compound 72, 5-[4-chloro-3-(ethylcarbamoyl)phenyl]-(3,4-dichlorophenyl)-1-ethyl-6-methyl-4-oxo-pyridine-3-carboxylic acid] | 1 (1=0-20%) | 1 (1=0-20%) | 1 (1=0-20%) | 1 (1=0-20%) | 1 (1=0-20%) | 1 (1=0-20%) | 1 (1=0-20%) | 1 (1=0-20%) | 1 (1=0-20%) | 1 (1=0-20%) | 1 (1=0-20%) | 1 (1=0-20%)
CCn1c(C)c(-c2cc(F)c(F)c(F)c2)c(=O)c(C(=O)O)c1-c1ccc(Cl)c(Cl)c1 [Compound 73, 2-(3,4-dichlorophenyl)-1-ethyl-6-methyl-4-oxo-5-(3,4,5-trifluorophenyl)pyridine-3-carboxylic acid] | 3 (3=41-60%) | 2 (2=21-40%) | 3 (3=41-60%) | 3 (3=41-60%) | 4 (4=61-80%) | 2 (2=21-40%) | 1 (1=0-20%) | 4 (4=61-80%) | 2 (2=21-40%) | 2 (2=21-40%) | 2 (2=21-40%) | 1 (1=0-20%)
